One data set has as its target Mu-type opioid receptor (Homo sapiens, UniProt P35372). Kind of data set: GPCRScan assay: inhibition of MOR. Set-up: radioligand conc. used [nm] 1.0 – 2.0, parental cells stable HEK.
The target in data set [1] is B2 bradykinin receptor (Homo sapiens) (UniProt P30411). Kind of data set: Bradykinin B2 Eurofins Panlabs panel. As to conditions: Compound concentration 10.0 uM; call rule not given here.
Data set [2] has as its target hERG (KCNH2) potassium channel (Homo sapiens, UniProt Q12809). Kind of data set: Potassium Channel hERG Eurofins Panlabs panel. As to conditions: compound concentration 10 uM. For orientation: The hERG channel carries a current that helps repolarise heart muscle cells.
The target of data set [3] is T1, GABA-A receptor; anion channel (Rattus norvegicus) (UniProt O09028+P15431+P18506+P18508+P19969+P20236+P23574+P23576+P28471+P28473+P30191+P62813+P63079+P63138+Q91ZM7+Q9ES14). Kind of data set: GABAA, Chloride Channel, TBOB Eurofins Panlabs panel. The class given is protein-complex assay. The note with it: Compound concentration 10.0 uM.
Data set [4] concerns the target D(2) dopamine receptor (Homo sapiens) (UniProt P14416). Kind of data set: Dopamine D2L Eurofins Panlabs panel. As to conditions: Compound concentration 10.0 uM.
For data set [5], the target named is Progesterone receptor (Homo sapiens) (UniProt P06401). Kind of data set: Progesterone PR-B Eurofins Panlabs panel. As to conditions: Compound concentration 10.0 uM.
The target of data set [6] is Adenosine receptor A1 (Homo sapiens) (UniProt P30542). Kind of data set: Adenosine A1 Eurofins Panlabs panel. As to conditions: Compound concentration 10.0 uM.
Data set [7] addresses 3',5'-cyclic-AMP phosphodiesterase 7B (Homo sapiens, UniProt Q9NP56). Kind of data set: 3H-cAMP and 3H-cGMP Scintillation Proximity Assay (PDE7B). For orientation: In a scintillation proximity assay essentially only radioactivity close to the scintillant gives light.
For data set [8], the target named is Phosphodiesterase 3 (Homo sapiens) (UniProt Q14432+Q13370). Kind of data set: Phosphodiesterase PDE3 Eurofins Panlabs panel. Format: protein assay. As to conditions: Compound concentration 10.0 uM.
The target of data set [9] is T2, Muscarinic acetylcholine receptor M4 (Homo sapiens) (UniProt P08173).
T2 sequence (whole entry): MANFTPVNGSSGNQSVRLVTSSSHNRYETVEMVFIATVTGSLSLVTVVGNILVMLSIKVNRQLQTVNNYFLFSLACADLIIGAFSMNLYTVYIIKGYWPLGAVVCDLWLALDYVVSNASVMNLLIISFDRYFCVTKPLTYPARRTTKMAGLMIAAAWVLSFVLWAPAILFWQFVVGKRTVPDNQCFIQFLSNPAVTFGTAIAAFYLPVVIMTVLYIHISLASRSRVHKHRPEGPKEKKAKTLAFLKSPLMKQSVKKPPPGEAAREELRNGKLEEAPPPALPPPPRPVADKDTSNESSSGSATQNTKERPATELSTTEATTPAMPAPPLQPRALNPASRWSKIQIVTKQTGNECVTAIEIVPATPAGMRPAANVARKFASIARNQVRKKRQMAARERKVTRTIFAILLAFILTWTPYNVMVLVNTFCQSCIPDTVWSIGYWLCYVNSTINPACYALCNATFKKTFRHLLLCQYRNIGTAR
Kind of data set: Muscarinic M4 Eurofins Panlabs panel. The note with it: Compound concentration 10.0 uM.

Data set [10] has as its target Alpha-1A adrenergic receptor (Homo sapiens) (UniProt P35348). As to conditions: Compound concentration 10.0 uM.
Data set [11] deals with T1, GABA-A receptor; anion channel (Rattus norvegicus). Kind of data set: GABAA, Flunitrazepam, Central Eurofins Panlabs panel. The class given is protein-complex assay. As to conditions: Compound concentration 10.0 uM.
The target in data set [12] is T3, Muscarinic acetylcholine receptor M1 (Homo sapiens) (UniProt P11229).
T3 sequence (whole entry): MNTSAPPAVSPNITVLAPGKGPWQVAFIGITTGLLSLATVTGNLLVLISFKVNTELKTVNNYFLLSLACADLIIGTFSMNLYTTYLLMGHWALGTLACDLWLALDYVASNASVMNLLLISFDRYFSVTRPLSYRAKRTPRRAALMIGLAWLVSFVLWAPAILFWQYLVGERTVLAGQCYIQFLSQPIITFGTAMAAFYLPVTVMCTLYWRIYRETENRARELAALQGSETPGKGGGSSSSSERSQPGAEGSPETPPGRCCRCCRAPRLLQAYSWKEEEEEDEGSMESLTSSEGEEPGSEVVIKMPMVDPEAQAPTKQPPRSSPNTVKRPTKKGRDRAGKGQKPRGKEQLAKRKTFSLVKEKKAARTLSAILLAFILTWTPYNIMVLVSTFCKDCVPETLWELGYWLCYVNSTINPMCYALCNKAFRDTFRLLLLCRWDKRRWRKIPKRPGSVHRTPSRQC
Kind of data set: Muscarinic M1 Eurofins Panlabs panel. As to conditions: Compound concentration 10.0 uM.

For data set [13], the target named is Aldo-keto reductase family 1 member B1 (Rattus norvegicus) (UniProt P07943). Kind of data set: Aldose Reductase Eurofins Panlabs panel. As to conditions: Compound concentration 10.0 uM.
In data set [14] the target is Androgen receptor (Homo sapiens) (UniProt P10275). Kind of data set: Androgen (Testosterone) Eurofins Panlabs panel. The note with it: Compound concentration 10.0 uM.
Data set [15] deals with Beta-2 adrenergic receptor (Homo sapiens) (UniProt P07550). Kind of data set: Adrenergic beta2 Eurofins Panlabs panel. As to conditions: Compound concentration 10.0 uM.
The target in data set [16] is Carbonic anhydrase 2 (Homo sapiens) (UniProt P00918). Kind of data set: Carbonic Anhydrase II Eurofins Panlabs panel. The note with it: Compound concentration 10.0 uM.
Data set [17] addresses Glutamate NMDA receptor (Rattus norvegicus) (UniProt P35439+Q00959+Q00960+Q00961+Q62645+Q8VHN2+Q9R1M7). Kind of data set: Glutamate, NMDA, Agonism Eurofins Panlabs panel. The class given is protein-complex assay. The note with it: Compound concentration 10.0 uM.
For data set [18], the target named is Alpha-1A adrenergic receptor (Rattus norvegicus) (UniProt P43140). Kind of data set: Adrenergic alpha1A Eurofins Panlabs panel. The note with it: Compound concentration 10.0 uM.
The target in data set [19] is Sodium/potassium-transporting ATPase (Sus scrofa) (UniProt P05027+P05024+D2WKD8+D2WKD7+F1ST41). Kind of data set: ATPase, Na+/K+, Heart, Pig Eurofins Panlabs panel. Format: protein-complex assay. The note with it: Compound concentration 10.0 uM.
In data set [20] the target is GABA B receptor (Rattus norvegicus) (UniProt Q9Z0U4+O88871). Kind of data set: GABAB, Non-Selective Eurofins Panlabs panel. The note with it: Compound concentration 10.0 uM. The class given is protein-complex assay.
Data set [21] deals with Prostaglandin G/H synthase 1 (Homo sapiens) (UniProt P23219). Kind of data set: Cyclooxygenase COX-1 Eurofins Panlabs panel. The note with it: Compound concentration 10.0 uM.
In data set [22] the target is 5-hydroxytryptamine receptor 4 (Cavia porcellus) (UniProt O70528). Kind of data set: Serotonin (5-Hydroxytryptamine) 5-HT4 Eurofins Panlabs panel. As to conditions: Compound concentration 10.0 uM.
Data set [23] has as its target Type-2 angiotensin II receptor (Homo sapiens) (UniProt P50052). Kind of data set: Angiotensin AT2 Eurofins Panlabs panel. As to conditions: Compound concentration 10.0 uM.
In data set [24] the target is Cannabinoid receptor 2 (Homo sapiens) (UniProt P34972). Kind of data set: Cannabinoid CB2 Eurofins Panlabs panel. The note with it: Compound concentration 10.0 uM.
Data set [25] has as its target Glutamate receptor ionotropic, kainate (Rattus norvegicus) (UniProt P22756+Q01812+P42260+P42264+Q63273). Kind of data set: Glutamate, Kainate Eurofins Panlabs panel. Format: protein-complex assay. The note with it: Compound concentration 10.0 uM.
Data set [26] deals with Vasopressin V1a receptor (Homo sapiens) (UniProt P37288). Kind of data set: Vasopressin V1A Eurofins Panlabs panel. As to conditions: concentration not given here.
Data set [27] addresses Muscarinic acetylcholine receptor M3 (Homo sapiens) (UniProt P20309). Kind of data set: Muscarinic M3 Eurofins Panlabs panel. As to conditions: Compound concentration 10.0 uM.

SMILES strings stand for the structures. Bounds are passed on as bounds.

From ChEMBL document CHEMBL5303765, “Data for DCP probe BAY-7081” (2023) come the findings set out here.

Sequence of Mu-type opioid receptor (P35372 whole entry): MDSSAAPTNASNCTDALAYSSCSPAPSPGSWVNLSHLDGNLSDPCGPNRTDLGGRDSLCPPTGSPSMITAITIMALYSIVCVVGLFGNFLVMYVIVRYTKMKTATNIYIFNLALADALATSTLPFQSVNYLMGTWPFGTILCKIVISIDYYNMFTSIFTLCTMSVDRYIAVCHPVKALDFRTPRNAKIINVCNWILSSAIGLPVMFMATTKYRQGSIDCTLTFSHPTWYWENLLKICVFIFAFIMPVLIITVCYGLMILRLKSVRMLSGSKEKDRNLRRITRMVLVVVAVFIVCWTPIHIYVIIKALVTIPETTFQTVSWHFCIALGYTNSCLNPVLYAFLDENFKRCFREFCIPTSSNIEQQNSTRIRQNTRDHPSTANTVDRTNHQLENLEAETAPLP
Sequence of Alpha-1A adrenergic receptor (Homo sapiens) (P35348 whole entry): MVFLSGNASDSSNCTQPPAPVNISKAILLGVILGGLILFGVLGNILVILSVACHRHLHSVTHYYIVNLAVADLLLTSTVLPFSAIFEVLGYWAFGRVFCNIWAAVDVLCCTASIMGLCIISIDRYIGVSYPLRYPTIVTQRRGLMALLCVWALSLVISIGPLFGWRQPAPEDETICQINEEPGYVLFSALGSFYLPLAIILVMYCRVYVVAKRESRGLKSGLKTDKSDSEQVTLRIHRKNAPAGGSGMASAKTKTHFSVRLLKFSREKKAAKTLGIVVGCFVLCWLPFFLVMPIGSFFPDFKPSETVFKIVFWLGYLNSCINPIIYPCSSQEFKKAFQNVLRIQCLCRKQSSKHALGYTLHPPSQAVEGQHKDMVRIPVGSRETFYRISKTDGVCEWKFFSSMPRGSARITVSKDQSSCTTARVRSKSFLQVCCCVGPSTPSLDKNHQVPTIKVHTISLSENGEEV
Sequence of 5-hydroxytryptamine receptor 4 (Cavia porcellus) (O70528 whole entry): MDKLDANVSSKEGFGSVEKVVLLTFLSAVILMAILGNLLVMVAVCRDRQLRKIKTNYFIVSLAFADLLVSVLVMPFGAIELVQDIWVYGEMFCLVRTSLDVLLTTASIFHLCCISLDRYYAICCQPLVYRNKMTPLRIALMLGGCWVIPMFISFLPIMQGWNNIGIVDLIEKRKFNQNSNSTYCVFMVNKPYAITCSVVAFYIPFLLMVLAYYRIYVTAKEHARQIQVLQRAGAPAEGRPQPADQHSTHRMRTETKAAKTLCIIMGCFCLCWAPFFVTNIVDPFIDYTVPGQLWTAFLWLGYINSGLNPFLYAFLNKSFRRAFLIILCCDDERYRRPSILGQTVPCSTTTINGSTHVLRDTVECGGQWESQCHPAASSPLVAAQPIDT
Sequence of Cannabinoid receptor 2 (Homo sapiens) (P34972 whole entry): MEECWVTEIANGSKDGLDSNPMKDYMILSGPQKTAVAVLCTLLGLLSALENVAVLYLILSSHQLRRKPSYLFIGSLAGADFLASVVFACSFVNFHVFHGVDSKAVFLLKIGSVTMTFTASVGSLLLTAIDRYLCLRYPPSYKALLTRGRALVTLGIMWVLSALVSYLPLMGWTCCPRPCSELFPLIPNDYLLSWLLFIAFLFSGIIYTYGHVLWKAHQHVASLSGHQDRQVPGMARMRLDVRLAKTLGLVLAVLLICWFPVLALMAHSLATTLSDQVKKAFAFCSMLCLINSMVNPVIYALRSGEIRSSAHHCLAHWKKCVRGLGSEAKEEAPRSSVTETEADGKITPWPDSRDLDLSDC
Sequence of Muscarinic acetylcholine receptor M3 (Homo sapiens) (P20309 whole entry, looked up): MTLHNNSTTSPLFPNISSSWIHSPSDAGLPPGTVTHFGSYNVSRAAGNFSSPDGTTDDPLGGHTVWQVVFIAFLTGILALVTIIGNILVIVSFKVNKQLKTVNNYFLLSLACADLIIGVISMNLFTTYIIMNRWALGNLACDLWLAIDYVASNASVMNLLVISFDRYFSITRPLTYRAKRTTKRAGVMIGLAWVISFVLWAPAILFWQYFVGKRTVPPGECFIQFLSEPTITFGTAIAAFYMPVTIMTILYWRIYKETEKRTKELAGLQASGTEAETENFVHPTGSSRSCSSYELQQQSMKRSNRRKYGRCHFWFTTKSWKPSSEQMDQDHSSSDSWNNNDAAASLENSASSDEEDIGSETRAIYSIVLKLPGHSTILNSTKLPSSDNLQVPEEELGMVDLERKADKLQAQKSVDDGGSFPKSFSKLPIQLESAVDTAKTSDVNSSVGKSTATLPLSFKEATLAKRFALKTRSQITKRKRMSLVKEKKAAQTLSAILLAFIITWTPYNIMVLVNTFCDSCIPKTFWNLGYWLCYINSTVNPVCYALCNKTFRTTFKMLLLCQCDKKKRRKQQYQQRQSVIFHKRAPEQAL
Sequence of B2 bradykinin receptor (Homo sapiens) (P30411 whole entry): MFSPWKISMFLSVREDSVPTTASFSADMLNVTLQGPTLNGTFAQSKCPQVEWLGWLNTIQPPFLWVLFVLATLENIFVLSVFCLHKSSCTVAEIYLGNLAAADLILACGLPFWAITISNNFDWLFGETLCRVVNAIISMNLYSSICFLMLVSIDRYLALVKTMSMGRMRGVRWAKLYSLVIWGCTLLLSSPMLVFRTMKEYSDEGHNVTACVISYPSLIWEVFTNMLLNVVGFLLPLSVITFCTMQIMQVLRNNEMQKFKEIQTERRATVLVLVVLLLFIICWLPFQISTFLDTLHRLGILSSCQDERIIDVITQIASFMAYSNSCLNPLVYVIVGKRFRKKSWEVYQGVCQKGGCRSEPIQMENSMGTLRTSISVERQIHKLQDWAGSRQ
Sequence of Androgen receptor (Homo sapiens) (P10275 whole entry): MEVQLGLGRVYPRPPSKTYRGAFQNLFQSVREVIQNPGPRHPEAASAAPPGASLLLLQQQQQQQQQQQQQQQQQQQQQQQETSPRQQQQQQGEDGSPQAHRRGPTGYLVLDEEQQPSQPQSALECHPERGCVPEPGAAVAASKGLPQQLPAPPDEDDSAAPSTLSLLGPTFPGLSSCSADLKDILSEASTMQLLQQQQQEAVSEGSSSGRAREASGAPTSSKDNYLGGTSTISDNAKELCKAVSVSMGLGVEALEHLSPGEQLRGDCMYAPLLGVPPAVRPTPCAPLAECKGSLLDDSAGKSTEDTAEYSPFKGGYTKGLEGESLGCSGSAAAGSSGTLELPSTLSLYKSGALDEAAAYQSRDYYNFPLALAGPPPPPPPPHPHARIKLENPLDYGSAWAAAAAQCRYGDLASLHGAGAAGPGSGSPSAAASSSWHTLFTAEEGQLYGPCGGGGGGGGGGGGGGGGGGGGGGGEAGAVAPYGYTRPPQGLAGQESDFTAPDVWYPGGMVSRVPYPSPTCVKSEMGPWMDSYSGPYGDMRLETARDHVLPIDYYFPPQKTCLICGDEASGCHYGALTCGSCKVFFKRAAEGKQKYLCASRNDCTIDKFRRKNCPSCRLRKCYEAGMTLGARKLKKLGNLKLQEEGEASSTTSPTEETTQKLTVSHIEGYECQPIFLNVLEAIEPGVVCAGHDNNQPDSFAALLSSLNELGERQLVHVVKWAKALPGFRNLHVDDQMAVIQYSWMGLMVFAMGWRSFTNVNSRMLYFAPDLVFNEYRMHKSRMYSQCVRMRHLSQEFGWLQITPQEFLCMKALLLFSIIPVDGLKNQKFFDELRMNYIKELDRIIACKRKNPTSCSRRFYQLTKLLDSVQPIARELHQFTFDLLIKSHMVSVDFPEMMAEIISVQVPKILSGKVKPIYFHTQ
Sequence of Vasopressin V1a receptor (Homo sapiens) (P37288 whole entry, looked up): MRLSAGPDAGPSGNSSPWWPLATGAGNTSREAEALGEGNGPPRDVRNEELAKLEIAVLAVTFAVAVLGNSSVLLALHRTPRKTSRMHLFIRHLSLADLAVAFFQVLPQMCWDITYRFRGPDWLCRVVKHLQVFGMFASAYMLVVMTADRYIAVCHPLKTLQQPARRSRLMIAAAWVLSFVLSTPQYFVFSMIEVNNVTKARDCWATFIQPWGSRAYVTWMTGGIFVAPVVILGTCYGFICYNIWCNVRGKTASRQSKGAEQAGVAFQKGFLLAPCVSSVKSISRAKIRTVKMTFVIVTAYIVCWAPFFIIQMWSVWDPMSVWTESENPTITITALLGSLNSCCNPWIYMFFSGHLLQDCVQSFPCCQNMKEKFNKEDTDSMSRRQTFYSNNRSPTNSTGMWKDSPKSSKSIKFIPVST
Sequence of Type-2 angiotensin II receptor (Homo sapiens) (P50052 whole entry): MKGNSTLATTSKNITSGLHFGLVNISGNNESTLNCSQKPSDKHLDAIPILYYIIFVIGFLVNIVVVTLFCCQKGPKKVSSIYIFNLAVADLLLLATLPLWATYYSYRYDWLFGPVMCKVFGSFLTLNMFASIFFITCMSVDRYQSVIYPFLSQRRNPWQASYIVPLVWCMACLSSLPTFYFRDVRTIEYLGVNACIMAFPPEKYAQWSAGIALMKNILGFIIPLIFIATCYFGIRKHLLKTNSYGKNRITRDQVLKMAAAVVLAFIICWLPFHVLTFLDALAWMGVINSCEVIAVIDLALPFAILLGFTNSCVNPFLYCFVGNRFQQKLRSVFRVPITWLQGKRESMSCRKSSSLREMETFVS
Sequence of Alpha-1A adrenergic receptor (Rattus norvegicus) (P43140 whole entry): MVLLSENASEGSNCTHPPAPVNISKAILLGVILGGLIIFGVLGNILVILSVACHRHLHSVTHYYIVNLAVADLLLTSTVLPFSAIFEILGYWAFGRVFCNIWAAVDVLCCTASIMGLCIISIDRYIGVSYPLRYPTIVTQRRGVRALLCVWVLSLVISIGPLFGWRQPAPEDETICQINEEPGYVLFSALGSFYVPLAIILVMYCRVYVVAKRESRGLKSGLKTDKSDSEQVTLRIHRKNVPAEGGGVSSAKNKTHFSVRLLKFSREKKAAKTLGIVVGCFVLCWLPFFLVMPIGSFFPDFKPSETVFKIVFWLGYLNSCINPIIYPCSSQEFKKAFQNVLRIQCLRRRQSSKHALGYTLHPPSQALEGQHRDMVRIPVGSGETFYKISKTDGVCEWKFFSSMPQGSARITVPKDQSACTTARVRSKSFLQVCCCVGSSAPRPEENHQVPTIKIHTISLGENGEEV

Regarding `CCC[C@@H]1CNCc2c1[nH]c(=O)c(C#N)c2N1CCC2(CC1)CC2`, the results for the Ki on Mu-type opioid receptor (read-out: Ki) and at Mu-type opioid receptor (read-out: pKi (converted)) were 4.71 µM and 4.68 µM, respectively.
As to `CCC[C@H]1CNCc2c1[nH]c(=O)c(C#N)c2N1CCC2(CC1)CC2`, the inhibition (as a rule, the relative decrease from the control value, in per cent) in data set [1] is -4%; in [3] it was 4%; in data set [4], 12%; in data set [5] it was 2%; in data set [6], 16%; in data set [8], -1.5%. Also, the inhibition in data set [9] is -4%; in data set [10], 6.38%; in [11], 16.5%; in data set [12], -4%; in data set [13] it was 4%; in data set [14], -6%. Further, the inhibition was -6% in data set [15]; -7.5% in data set [16]; 6% in data set [17]; 2% in data set [18]; -1% in data set [19]; -1% in data set [20]. Also, the inhibition is 1% in data set [21]; 22% in data set [22]; 3% in data set [23]; -1% in data set [24]; -0.5% in [25]; 0% in [26]. Moreover, the inhibition in data set [27] is -9%. Moreover, in [2], the inhibition at 10 µM turned out to be 18.5%. The IC50 (usually the concentration that inhibits the measured activity by half) in data set [7] is reported as > 10 µM (not active).
